In patent US20250160275A1, “COMPOUNDS FOR MODIFYING MEIOTIC RECOMBINATION AND METHODS RELATING THERETO” (The University of North Carolina at Chapel Hill, priority 2022, published 2025):

What was measured:
Format in all cases: in vivo
[1] = test system: flowering Arabidopsis thaliana plants; experiment: visual fluorescent pollen transgene assay, crossover frequency in interval I2a (chromosome 2)
[2] = test system: flowering Arabidopsis thaliana plants; experiment: visual fluorescent pollen transgene assay, crossover frequency in interval I5d (chromosome 5)
Method: An aqueous solution of 3-aminobutanoic acid was applied to flowering Arabidopsis thaliana plants to enhance the frequency of meiotic recombination (crossovers). Silwet, a spraying adjuvant, was added to the 3-aminobutanoic acid solution at a volume/volume concentration of 0.01%. The solution was applied to the plants by foliar spraying until the plants were drenched. Several concentrations of 3-aminobutanoic acid were used including 0.1, 1, 7.5, 10, 12.5 and 15 mM. As a control, other plants (i.e., control plants) were treated with an aqueous 0.01% solution of Silwet by foliar spraying the solution on the plants until the plants were drenched.
(§1) Crossover frequencies were measured in pollen from treated and control plants using a visual fluorescent pollen transgene assay as described in Francis et al., Proc Natl Acad Sci USA. 2007; 104 (10): 3913-3918. In this assay pollen tetrads are scored as Parental Ditype (PD), Nonparental Ditype (NPD) or Tetratype (TT) and the frequency of those tetrad classes are used to calculate a genetic map distances in centiMorgans (cM) between reporter genes expressing fluorescent proteins. The genetic map distances between a pair of markers on chromosome 5 were compared between control plants and treated plants. The genetic interval between the two markers was designated as I5d. […] In Table 2, each experimental treatment is paired with data from control plants that were treated and scored together and designated with an experiment number in the first column.
An aqueous solution phenethyl isothiocyanate (IUPAC name: 2-isothiocyanatoethylbenzene) was applied to flowering Arabidopsis thaliana plants to enhance the frequency of meiotic recombination (crossovers). Phenethyl isothiocyanate in an aqueous solution containing 10% DMSO and 0.01% Silwet was applied by foliar spray until the plants were drenched. The phenethyl isothiocyanate was first dissolved in 100% DMSO and then diluted to its final concentration with 0.0.1% Silwet in water. Several concentrations of phenethyl isothiocyanate were used including 7.5, 10, and 12.5 mM. Control plants were treated with an aqueous solution of 10% DMSO and 0.01% Silwet by foliar spraying the solution on the control plants until the control plants were drenched.
as §1, with “4,” for “2,”
An aqueous solution BIX-01294 (IUPAC name: N-(1-benzylpiperidin-4-yl)-6,7-dimethoxy-2-(4-methyl-1,4-diazepan-1-yl) quinazolin-4-amine) was applied to flowering Arabidopsis thaliana plants to enhance the frequency of meiotic recombination (crossovers). BIX-01294 in an aqueous solution containing 10% DMSO and 0.01% Silwet was applied by foliar spray until the plants were drenched. The BIX-01294 was first dissolved in 100% DMSO and then diluted to its final concentration with 0.0.1% Silwet in water. Several concentrations of […] were used including 0.5, 1, 2.5 and 5 mM. Control plants were treated with an aqueous solution of 10% DMSO and 0.01% Silwet by foliar spraying the solution on the control plants until the control plants were drenched. […]

[3] = test system: flowering Arabidopsis thaliana plants; experiment: visual fluorescent pollen transgene assay, crossover frequency in interval I2b (chromosome 2); settings: for NPD (Nonparental Ditype pollen tetrads) / PD (Parental Ditype pollen tetrads) / TT (Tetratype pollen tetrads) / genetic map distance: 0.01% Silwet in water, Exp.(1); for genetic map distance: Water control 5.11 cM
[4] = 2.5 mM foliar spray, Example 4, Exp.(1)
[5] = 7.5 mM foliar spray, Example 4, Exp.(1)
[6] = 10 mM foliar spray, Example 4, Exp.(1)
[7] = 0.1 mM foliar spray, 0.01% Silwet in water, Exp.(1)
[8] = 1 mM foliar spray, 0.01% Silwet in water, Exp.(2)
[9] = 10 mM foliar spray, 0.01% Silwet in water, Exp.(1)
[10] = 12.5 mM foliar spray, 0.01% Silwet in water, Exp.(3)
[11] = 15 mM foliar spray, 0.01% Silwet in water, Exp.(3)
[12] = 0.1 mM foliar spray, 10% DMSO and 0.01% Silwet, Exp.(1)
[13] = 0.5 mM foliar spray, 10% DMSO and 0.01% Silwet, Exp.(1)
[14] = 1 mM foliar spray, 10% DMSO and 0.01% Silwet, Exp.(1)
[15] = 2.5 mM foliar spray, 10% DMSO and 0.01% Silwet, Exp.(2)
[16] = 5 mM foliar spray, 10% DMSO and 0.01% Silwet, Exp.(2)
[17] = 1 mM foliar spray, 10% DMSO and 0.01% Silwet, Exp.(2)
[18] = 2.5 mM foliar spray, 10% DMSO and 0.01% Silwet, Exp.(3)
[19] = 5 mM foliar spray, 10% DMSO and 0.01% Silwet, Exp.(3)

CC(N)CC(=O)O (stereo not shown) [3-aminobutanoic acid]
NPD (Nonparental Ditype pollen tetrads) [1, 4]: 0
PD (Parental Ditype pollen tetrads) [1, 4]: 924
TT (Tetratype pollen tetrads) [1, 4]: 67
genetic map distance ([1]; 2.5 mM foliar spray, Example 4, Exp.(1), DMSO control 2.32 cM, p-value 0.021): 3.38 cM
NPD (Nonparental Ditype pollen tetrads) [1, 5]: 0
PD (Parental Ditype pollen tetrads) [1, 5]: 914
TT (Tetratype pollen tetrads) [1, 5]: 66
genetic map distance ([1]; 7.5 mM foliar spray, Example 4, Exp.(1), DMSO control 2.32 cM, p-value 0.023): 3.37 cM
NPD (Nonparental Ditype pollen tetrads) [1, 6]: 0
PD (Parental Ditype pollen tetrads) [1, 6]: 941
TT (Tetratype pollen tetrads) [1, 6]: 60
genetic map distance ([1]; 10 mM foliar spray, Example 4, Exp.(1), DMSO control 2.32 cM, p-value 0.090): 3.00 cM
meiotic recombination in treated plants compared to control plants ([1]; Example 4, 2.5 and 7.5 mM, two of three concentrations (not 10 mM)): increased meiotic recombination
NPD (Nonparental Ditype pollen tetrads) [2, 7]: 0
PD (Parental Ditype pollen tetrads) [2, 7]: 926
TT (Tetratype pollen tetrads) [2, 7]: 178
genetic map distance ([2]; 0.1 mM foliar spray, 0.01% Silwet in water, Exp.(1), Water control 5.89 cM, p-value 0.002): 8.06 cM
NPD (Nonparental Ditype pollen tetrads) [2, 8]: 0
PD (Parental Ditype pollen tetrads) [2, 8]: 983
TT (Tetratype pollen tetrads) [2, 8]: 169
genetic map distance ([2]; 1 mM foliar spray, 0.01% Silwet in water, Exp.(2), Water control 5.37 cM, p-value 0.003): 7.34 cM
NPD (Nonparental Ditype pollen tetrads) [2, 9]: 0
PD (Parental Ditype pollen tetrads) [2, 9]: 1092
TT (Tetratype pollen tetrads) [2, 9]: 221
genetic map distance ([2]; 10 mM foliar spray, 0.01% Silwet in water, Exp.(1), Water control 5.89 cM, p-value 0.000): 8.42 cM
NPD (Nonparental Ditype pollen tetrads) [2, 10]: 4
PD (Parental Ditype pollen tetrads) [2, 10]: 908
TT (Tetratype pollen tetrads) [2, 10]: 166
genetic map distance ([2]; 12.5 mM foliar spray, 0.01% Silwet in water, Exp.(3), Water control 5.50 cM, p-value 0.000): 8.81 cM
NPD (Nonparental Ditype pollen tetrads) [2, 11]: 2
PD (Parental Ditype pollen tetrads) [2, 11]: 849
TT (Tetratype pollen tetrads) [2, 11]: 160
genetic map distance ([2]; 15 mM foliar spray, 0.01% Silwet in water, Exp.(3), Water control 5.50 cM, p-value 0.000): 8.51 cM
meiotic recombination in treated plants compared to controls ([2]; all concentrations (Table 2: 0.1, 1, 10, 12.5, 15 mM)): increase meiotic recombination
NPD (Nonparental Ditype pollen tetrads) ([3]; 7.5 mM foliar spray): 3
PD (Parental Ditype pollen tetrads) ([3]; 7.5 mM foliar spray): 867
TT (Tetratype pollen tetrads) ([3]; 7.5 mM foliar spray): 128
genetic map distance ([3]; 7.5 mM foliar spray, p-value 0.006): 7.31 cM
NPD (Nonparental Ditype pollen tetrads) ([3]; 10 mM foliar spray): 1
PD (Parental Ditype pollen tetrads) ([3]; 10 mM foliar spray): 866
TT (Tetratype pollen tetrads) ([3]; 10 mM foliar spray): 140
genetic map distance ([3]; 10 mM foliar spray, p-value 0.003): 7.25 cM
NPD (Nonparental Ditype pollen tetrads) ([3]; 12.5 mM foliar spray): 0
PD (Parental Ditype pollen tetrads) ([3]; 12.5 mM foliar spray): 865
TT (Tetratype pollen tetrads) ([3]; 12.5 mM foliar spray): 155
genetic map distance ([3]; 12.5 mM foliar spray, p-value 0.000): 7.60 cM
meiotic recombination in treated plants compared to control plants ([3]; all three concentrations (7.5, 10, 12.5 mM)): increased meiotic recombination

COc1cc2nc(N3CCCN(C)CC3)nc(NC3CCN(Cc4ccccc4)CC3)c2cc1OC [BIX-01294, N-(1-benzylpiperidin-4-yl)-6,7-dimethoxy-2-(4-methyl-1,4-diazepan-1-yl) quinazolin-4-amine]
NPD (Nonparental Ditype pollen tetrads) [1, 12]: 0
PD (Parental Ditype pollen tetrads) [1, 12]: 908
TT (Tetratype pollen tetrads) [1, 12]: 59
genetic map distance ([1]; 0.1 mM foliar spray, 10% DMSO and 0.01% Silwet, Exp.(1), DMSO control 2.19 cM, p-value 0.046): 3.05 cM
NPD (Nonparental Ditype pollen tetrads) [1, 13]: 0
PD (Parental Ditype pollen tetrads) [1, 13]: 922
TT (Tetratype pollen tetrads) [1, 13]: 84
genetic map distance ([1]; 0.5 mM foliar spray, 10% DMSO and 0.01% Silwet, Exp.(1), DMSO control 2.19 cM, p-value 0.000): 4.17 cM
NPD (Nonparental Ditype pollen tetrads) [1, 14]: 0
PD (Parental Ditype pollen tetrads) [1, 14]: 988
TT (Tetratype pollen tetrads) [1, 14]: 99
genetic map distance ([1]; 1 mM foliar spray, 10% DMSO and 0.01% Silwet, Exp.(1), DMSO control 2.19 cM, p-value 0.000): 4.55 cM
NPD (Nonparental Ditype pollen tetrads) [1, 15]: 0
PD (Parental Ditype pollen tetrads) [1, 15]: 777
TT (Tetratype pollen tetrads) [1, 15]: 55
genetic map distance ([1]; 2.5 mM foliar spray, 10% DMSO and 0.01% Silwet, Exp.(2), DMSO control 2.75 cM, p-value 0.163): 3.31 cM
NPD (Nonparental Ditype pollen tetrads) [1, 16]: 0
PD (Parental Ditype pollen tetrads) [1, 16]: 836
TT (Tetratype pollen tetrads) [1, 16]: 43
genetic map distance ([1]; 5 mM foliar spray, 10% DMSO and 0.01% Silwet, Exp.(2), DMSO control 2.75 cM, p-value 0.725): 2.45 cM
meiotic recombination in treated plants compared to control plants ([1]; 0.1, 0.5 and 1 mM, three of five concentrations (not 2.5, 5 mM)): increased meiotic recombination
NPD (Nonparental Ditype pollen tetrads) [2, 13]: 1
PD (Parental Ditype pollen tetrads) [2, 13]: 936
TT (Tetratype pollen tetrads) [2, 13]: 185
genetic map distance ([2]; 0.5 mM foliar spray, 10% DMSO and 0.01% Silwet, Exp.(1), DMSO control 6.04 cM, p-value 0.001): 8.51 cM
NPD (Nonparental Ditype pollen tetrads) [2, 17]: 0
PD (Parental Ditype pollen tetrads) [2, 17]: 829
TT (Tetratype pollen tetrads) [2, 17]: 131
genetic map distance ([2]; 1 mM foliar spray, 10% DMSO and 0.01% Silwet, Exp.(2), DMSO control 6.73 cM, p-value 0.454): 6.82 cM
NPD (Nonparental Ditype pollen tetrads) [2, 18]: 5
PD (Parental Ditype pollen tetrads) [2, 18]: 888
TT (Tetratype pollen tetrads) [2, 18]: 169
genetic map distance ([2]; 2.5 mM foliar spray, 10% DMSO and 0.01% Silwet, Exp.(3), DMSO control 5.31 cM, p-value 0.000): 9.37 cM
NPD (Nonparental Ditype pollen tetrads) [2, 19]: 4
PD (Parental Ditype pollen tetrads) [2, 19]: 938
TT (Tetratype pollen tetrads) [2, 19]: 156
genetic map distance ([2]; 5 mM foliar spray, 10% DMSO and 0.01% Silwet, Exp.(3), DMSO control 5.31 cM, p-value 0.001): 8.20 cM
meiotic recombination in treated plants compared to controls ([2]; 0.5, 2.5 and 5 mM, three of four concentrations (not 1 mM)): increase meiotic recombination
